# Measured values from patent US9926302B2, “Heteroaryl substituted heterocyclyl sulfones” (priority 2014, dated 2018).
# Target: T1, Human CaV2.2 channels (Homo sapiens, UniProt Q00975)
# T1 construct: expressed in transfected cells
# Assay: Fluorescence assay for CaV2.2 channels using potassium depolarization to induce channel opening (FLIPR, Fluo 4)
# Format: cell-based
# Conditions: 3 μM test compound; alternative assay buffer 30 mM KCl (inactivated channel state); HEK293 cells stably expressing human CaV2.2
# How it was run: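 HEK293 cells stably co-expressing CaV2.2 with alpha2-delta and beta subunits plus Kir2.3, loaded with 2 μM Fluo 4 and pre-incubated 15 min at 25° C with compound in 1 mM or 30 mM KCl buffer (pH 7.4; latter promotes inactivated state). Depolarized by KCl addition; peak fluorescence amplitude normalized to baseline gives inhibition.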
# T1 sequence (P54289 947-1103): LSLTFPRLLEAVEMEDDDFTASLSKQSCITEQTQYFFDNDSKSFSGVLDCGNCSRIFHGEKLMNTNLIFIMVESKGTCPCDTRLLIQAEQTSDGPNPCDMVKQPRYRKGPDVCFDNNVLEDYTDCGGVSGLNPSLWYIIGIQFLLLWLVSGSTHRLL
# T1 sequence (P54289 25-946): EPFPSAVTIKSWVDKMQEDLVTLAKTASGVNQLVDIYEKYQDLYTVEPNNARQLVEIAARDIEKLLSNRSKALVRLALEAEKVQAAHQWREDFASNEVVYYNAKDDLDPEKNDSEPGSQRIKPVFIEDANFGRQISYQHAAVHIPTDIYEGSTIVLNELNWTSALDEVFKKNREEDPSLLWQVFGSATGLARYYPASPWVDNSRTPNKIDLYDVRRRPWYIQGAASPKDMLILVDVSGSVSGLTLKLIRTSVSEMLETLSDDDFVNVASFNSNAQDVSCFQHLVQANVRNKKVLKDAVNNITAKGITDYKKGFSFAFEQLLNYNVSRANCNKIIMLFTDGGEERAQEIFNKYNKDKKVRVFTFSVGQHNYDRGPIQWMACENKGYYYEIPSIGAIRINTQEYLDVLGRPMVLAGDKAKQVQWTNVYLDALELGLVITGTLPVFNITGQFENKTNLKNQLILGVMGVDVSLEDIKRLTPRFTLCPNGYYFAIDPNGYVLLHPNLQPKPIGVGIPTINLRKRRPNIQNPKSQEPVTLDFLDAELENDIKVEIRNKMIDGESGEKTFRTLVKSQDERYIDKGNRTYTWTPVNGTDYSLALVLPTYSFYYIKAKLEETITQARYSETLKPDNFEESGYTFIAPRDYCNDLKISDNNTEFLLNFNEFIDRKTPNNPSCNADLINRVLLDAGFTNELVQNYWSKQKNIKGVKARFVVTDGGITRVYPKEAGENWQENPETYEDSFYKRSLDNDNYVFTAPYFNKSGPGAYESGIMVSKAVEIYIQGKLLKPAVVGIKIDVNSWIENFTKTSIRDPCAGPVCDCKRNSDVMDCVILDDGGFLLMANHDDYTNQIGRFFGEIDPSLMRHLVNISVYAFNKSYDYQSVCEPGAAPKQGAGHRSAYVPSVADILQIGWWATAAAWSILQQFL
# T1 sequence (P54284 whole entry, further chain): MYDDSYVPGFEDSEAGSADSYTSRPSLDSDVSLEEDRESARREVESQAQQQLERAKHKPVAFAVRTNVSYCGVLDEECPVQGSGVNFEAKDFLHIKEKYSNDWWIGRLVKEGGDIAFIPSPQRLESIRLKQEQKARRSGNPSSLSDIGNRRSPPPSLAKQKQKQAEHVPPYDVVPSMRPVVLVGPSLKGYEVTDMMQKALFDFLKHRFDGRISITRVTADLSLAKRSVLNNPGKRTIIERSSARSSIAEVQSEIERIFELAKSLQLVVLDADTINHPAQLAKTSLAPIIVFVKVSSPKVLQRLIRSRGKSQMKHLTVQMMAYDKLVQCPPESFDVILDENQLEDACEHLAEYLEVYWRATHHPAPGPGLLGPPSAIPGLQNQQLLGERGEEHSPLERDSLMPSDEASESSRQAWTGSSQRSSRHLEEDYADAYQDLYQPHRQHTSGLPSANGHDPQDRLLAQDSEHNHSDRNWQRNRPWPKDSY
# T1 sequence (Q00975 whole entry): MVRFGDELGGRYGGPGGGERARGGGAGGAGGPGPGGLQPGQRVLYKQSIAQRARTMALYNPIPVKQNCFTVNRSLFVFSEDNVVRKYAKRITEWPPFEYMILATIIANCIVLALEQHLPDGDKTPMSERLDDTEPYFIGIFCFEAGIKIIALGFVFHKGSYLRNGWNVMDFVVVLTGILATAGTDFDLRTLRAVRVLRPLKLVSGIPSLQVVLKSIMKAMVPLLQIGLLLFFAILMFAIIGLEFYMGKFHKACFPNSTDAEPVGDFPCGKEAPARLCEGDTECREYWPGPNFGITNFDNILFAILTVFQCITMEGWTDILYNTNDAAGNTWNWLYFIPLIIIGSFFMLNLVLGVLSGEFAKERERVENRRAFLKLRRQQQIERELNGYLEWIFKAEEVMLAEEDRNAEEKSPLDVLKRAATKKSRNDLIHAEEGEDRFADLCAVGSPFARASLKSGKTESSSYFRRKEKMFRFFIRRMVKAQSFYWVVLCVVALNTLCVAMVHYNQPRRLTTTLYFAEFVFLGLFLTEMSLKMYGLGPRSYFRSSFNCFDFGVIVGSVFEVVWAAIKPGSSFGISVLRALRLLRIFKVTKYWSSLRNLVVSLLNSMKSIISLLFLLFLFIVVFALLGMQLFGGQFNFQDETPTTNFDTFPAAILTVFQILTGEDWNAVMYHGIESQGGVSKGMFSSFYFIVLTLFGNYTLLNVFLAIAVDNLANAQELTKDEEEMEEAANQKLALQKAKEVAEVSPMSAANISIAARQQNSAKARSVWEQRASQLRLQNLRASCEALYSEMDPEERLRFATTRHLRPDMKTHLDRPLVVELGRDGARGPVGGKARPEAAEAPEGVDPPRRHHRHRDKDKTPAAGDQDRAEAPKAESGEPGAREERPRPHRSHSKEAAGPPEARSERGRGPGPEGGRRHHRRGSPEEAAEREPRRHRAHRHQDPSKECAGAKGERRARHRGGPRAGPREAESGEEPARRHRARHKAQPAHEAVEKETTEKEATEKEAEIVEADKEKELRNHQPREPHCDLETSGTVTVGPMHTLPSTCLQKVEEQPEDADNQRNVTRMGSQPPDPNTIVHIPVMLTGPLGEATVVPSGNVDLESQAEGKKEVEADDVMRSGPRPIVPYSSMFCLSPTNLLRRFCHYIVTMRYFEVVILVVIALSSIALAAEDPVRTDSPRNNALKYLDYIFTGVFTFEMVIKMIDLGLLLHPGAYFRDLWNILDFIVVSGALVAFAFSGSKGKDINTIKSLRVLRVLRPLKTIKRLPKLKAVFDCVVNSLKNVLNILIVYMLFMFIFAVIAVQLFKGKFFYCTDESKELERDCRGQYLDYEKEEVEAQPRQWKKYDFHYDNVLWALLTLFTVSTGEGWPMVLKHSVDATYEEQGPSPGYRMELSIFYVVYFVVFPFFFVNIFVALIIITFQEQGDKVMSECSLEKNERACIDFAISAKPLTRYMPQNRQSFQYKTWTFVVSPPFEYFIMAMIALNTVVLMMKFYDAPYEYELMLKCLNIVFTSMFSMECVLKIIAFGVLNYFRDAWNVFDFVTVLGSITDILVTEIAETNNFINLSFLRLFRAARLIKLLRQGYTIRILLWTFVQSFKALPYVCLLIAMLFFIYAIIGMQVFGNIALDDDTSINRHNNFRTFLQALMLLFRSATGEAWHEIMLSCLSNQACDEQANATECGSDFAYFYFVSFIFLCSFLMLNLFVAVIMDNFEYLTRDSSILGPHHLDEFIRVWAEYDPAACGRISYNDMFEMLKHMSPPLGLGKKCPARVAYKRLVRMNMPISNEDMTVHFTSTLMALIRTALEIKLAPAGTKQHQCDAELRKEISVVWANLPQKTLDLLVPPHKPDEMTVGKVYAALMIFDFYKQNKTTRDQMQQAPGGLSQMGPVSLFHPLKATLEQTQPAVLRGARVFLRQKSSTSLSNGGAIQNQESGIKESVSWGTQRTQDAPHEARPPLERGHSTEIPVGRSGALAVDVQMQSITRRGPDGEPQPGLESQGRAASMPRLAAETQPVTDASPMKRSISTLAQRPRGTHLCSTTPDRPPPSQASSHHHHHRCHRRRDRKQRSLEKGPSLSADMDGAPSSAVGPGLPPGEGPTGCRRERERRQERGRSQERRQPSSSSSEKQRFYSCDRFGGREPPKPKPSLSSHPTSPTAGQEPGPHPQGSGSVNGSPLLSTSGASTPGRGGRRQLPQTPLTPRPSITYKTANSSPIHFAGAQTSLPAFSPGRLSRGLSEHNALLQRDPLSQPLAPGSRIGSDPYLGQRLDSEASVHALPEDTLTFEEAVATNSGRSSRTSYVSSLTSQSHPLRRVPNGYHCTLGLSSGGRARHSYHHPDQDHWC
row,SMILES,Activity Category: %-Inhib (CaV2.2) @3 μM @30 mM KCl
1,"CCC1(S(=O)(=O)c2cccc(C(F)(F)F)c2)CCOC(c2nnc(C(F)(F)F)o2)C1 (centres unmarked) [SC-241, 2-[4-Ethyl-4-[[3-(trifluoromethyl)phenyl]sulfonyl]-tetrahydro-pyran-2-yl]-5-(trifluoromethyl)-[1,3,4]oxadiazole]",B (%-Inhibition >75% up to ≤95%)
2,"CC1(S(=O)(=O)c2cccc(C(F)(F)F)c2)CCOC(c2cnc(C3CC3)cn2)C1 (centres unmarked) [SC-329, 2-Cyclopropyl-5-[4-methyl-4-[[3-(trifluoromethyl)phenyl]sulfonyl]-tetrahydro-pyran-2-yl]-pyrazine]",A (%-Inhibition >95%)
3,"CC1(S(=O)(=O)c2cccc(C(F)(F)F)c2)CCOC(c2nnc(C(F)(F)F)o2)C1 (single isomer, unassigned) [SC-121, 2-[4-Methyl-4-[[3-(trifluoromethyl)phenyl]sulfonyl]-tetrahydro-pyran-2-yl]-5-(trifluoromethyl)-[1,3,4]oxadiazole]",C (%-Inhibition >40% up to ≤75%)
4,"COc1ncc(C2CC(C)(S(=O)(=O)c3cccc(C(F)(F)F)c3)CCO2)cc1F (centres unmarked) [SC-256, 3-Fluoro-2-methoxy-5-[4-methyl-4-[[3-(trifluoromethyl)phenyl]sulfonyl]-tetrahydro-pyran-2-yl]-pyridine]",B (%-Inhibition >75% up to ≤95%)
5,"Cn1nc(S(C)(=O)=O)cc1C1CC(C)(S(=O)(=O)c2cccc(C(F)(F)F)c2)CCO1 (centres unmarked) [SC-430, 1-Methyl-3-methylsulfonyl-5-[4-methyl-4-[[3-(trifluoromethyl)phenyl]sulfonyl]-tetrahydro-pyran-2-yl]-1H-pyrazole]",B (%-Inhibition >75% up to ≤95%)
6,"C[S+]([O-])c1cc(C(F)(F)F)cnc1C1CC(C)(S(=O)(=O)c2cccc(C(F)(F)F)c2)CCO1 (centres unmarked) [SC-230, 3-(Methylsulfinyl)-2-[4-methyl-4-[[3-(trifluoromethyl)phenyl]sulfonyl]-tetrahydro-pyran-2-yl]-5-(trifluoromethyl)-pyridine]",B (%-Inhibition >75% up to ≤95%)
7,"CC1(S(=O)(=O)c2cccc(C(F)(F)F)c2)CCOC(c2ccc(S(C)(=O)=O)nc2)C1 (centres unmarked) [SC-338, 2-Methylsulfonyl-5-[4-methyl-4-[[3-(trifluoromethyl)phenyl]sulfonyl]-tetrahydro-pyran-2-yl]-pyridine]",B (%-Inhibition >75% up to ≤95%)
8,"CC1(S(=O)(=O)c2cc(F)cc(C(F)(F)F)c2)CCOC(c2ncc(S(C)(=O)=O)cc2Cl)C1 (centres unmarked) [SC-214, 3-Chloro-2-[4-[[3-fluoro-5-(trifluoromethyl)-phenyl]sulfonyl]-4-methyl-tetrahydro-pyran-2-yl]-5-methylsulfonyl-pyridine]",C (%-Inhibition >40% up to ≤75%)

# Same assay, conditions: HEK293, 3 μM test compound; alternative assay buffer 30 mM KCl (inactivated channel state); HEK293 cells stably expressing human CaV2.2; read-out: Activity Category: %-Inhib (CaV2.2) @3 μM @30 mM KCl
row,SMILES,inhibition at 3 µM [%]
1,"Cn1nc(C2CC2)cc1C1CC(C)(S(=O)(=O)c2cccc(C(F)(F)F)c2)CCO1 (racemic) [SC-434, 3-Cyclopropyl-1-methyl-5-[4-methyl-4-[[3-(trifluoromethyl)phenyl]sulfonyl]-tetrahydro-pyran-2-yl]-1H-pyrazole]",75 to 95
2,"CC1(S(=O)(=O)c2cccc(C(F)(F)F)c2)CCOC(c2cnc(C3CC3)cn2)C1 (centres unmarked) [SC-327, 2-Cyclopropyl-5-[4-methyl-4-[[3-(trifluoromethyl)phenyl]sulfonyl]-tetrahydro-pyran-2-yl]-pyrazine]",75 to 95
3,"COc1cc(OC)c(C2CC(C)(S(=O)(=O)c3cccc(C(F)(F)F)c3)CCO2)cn1 (racemic) [SC-247, 2,4-Dimethoxy-5-[4-methyl-4-[[3-(trifluoromethyl)phenyl]sulfonyl]-tetrahydro-pyran-2-yl]-pyridine]",75 to 95
4,"COc1cc(OC)c(C2CC(C)(S(=O)(=O)c3cccc(C(F)(F)F)c3)CCO2)cn1 (centres unmarked) [SC-245, 2,4-Dimethoxy-5-[4-methyl-4-[[3-(trifluoromethyl)phenyl]sulfonyl]-tetrahydro-pyran-2-yl]-pyridine]",75 to 95
5,"CC(C)Oc1ccc(C2CC(C)(S(=O)(=O)c3cccc(C(F)(F)F)c3)CCO2)cn1 (racemic) [SC-302, 2-Isopropoxy-5-[4-methyl-4-[[3-(trifluoromethyl)phenyl]sulfonyl]-tetrahydro-pyran-2-yl]-pyridine]",> 95
6,"COc1cc(S(C)(=O)=O)cnc1C1CC(C)(S(=O)(=O)c2cccc(C(F)(F)F)c2)CCO1 (centres unmarked) [SC-224, 3-Methoxy-5-methylsulfonyl-2-[4-methyl-4-[[3-(trifluoromethyl)phenyl]sulfonyl]-tetrahydro-pyran-2-yl]-pyridine]",75 to 95
7,"COc1cc(O)c(C2CC(C)(S(=O)(=O)c3cccc(C(F)(F)F)c3)CCO2)cn1 (centres unmarked) [SC-251, 2-Methoxy-5-[4-methyl-4-[[3-(trifluoromethyl)phenyl]sulfonyl]-tetrahydro-pyran-2-yl]-pyridin-4-ol]",40 to 75
8,"Cc1cc(S(C)(=O)=O)cnc1C1CC(C)(S(=O)(=O)c2cccc(OC(F)(F)F)c2)CCO1 (racemic) [SC-451, 3-Methyl-5-methylsulfonyl-2-[4-methyl-4-[[3-(trifluoromethyloxy)-phenyl]sulfonyl]-tetrahydro-pyran-2-yl]-pyridine]",40 to 75
9,"CN(C)c1ccc(C2CC(C)(S(=O)(=O)c3cccc(C(F)(F)F)c3)CCO2)cn1 (centres unmarked) [SC-330, Dimethyl-[5-[4-methyl-4-[[3-(trifluoromethyl)phenyl]sulfonyl]-tetrahydro-pyran-2-yl]-pyridin-2-yl]-amine]",75 to 95
10,"CC1(S(=O)(=O)c2cccc(C(F)(F)F)c2)CCOC(COc2cnc(C3CC3)cn2)C1 (single isomer, unassigned) [SC-132, 2-Cyclopropyl-5-[[4-methyl-4-[[3-(trifluoromethyl)phenyl]sulfonyl]-tetrahydro-pyran-2-yl]-methoxy]-pyrazine]",75 to 95
11,"CC(C)Oc1ccc(C2CC(S(=O)(=O)c3cccc(C(F)(F)F)c3)CCO2)cn1 (centres unmarked) [SC-339, 2-Isopropoxy-5-[4-[[3-(trifluoromethyl)phenyl]sulfonyl]-tetrahydro-pyran-2-yl]-pyridine]",> 95
12,"CC1(S(=O)(=O)c2cccc(OC(F)(F)F)c2)CCOC(c2ncc(C(F)(F)F)cc2S(C)(=O)=O)C1 (centres unmarked) [SC-220, 3-Methylsulfonyl-2-[4-methyl-4-[[3-(trifluoromethyloxy)-phenyl]sulfonyl]-tetrahydro-pyran-2-yl]-5-(trifluoromethyl)-pyridine]",> 95
13,"CCC1(S(=O)(=O)c2cccc(C(F)(F)F)c2)CCOC(c2cccnc2C)C1 (racemic) [SC-314, 3-[4-Ethyl-4-[[3-(trifluoromethyl)phenyl]sulfonyl]-tetrahydro-pyran-2-yl]-2-methyl-pyridine]",40 to 75
14,"COc1ncc(C2CC(C)(S(=O)(=O)c3cccc(C(F)(F)F)c3)CCO2)cn1 (centres unmarked) [SC-410, 2-Methoxy-5-[4-methyl-4-[[3-(trifluoromethyl)phenyl]sulfonyl]-tetrahydro-pyran-2-yl]-pyrimidine]",40 to 75
15,"CC1(S(=O)(=O)c2cccc(C(F)(F)F)c2)CCOC(c2ncc(S(C)(=O)=O)cc2OC(F)F)C1 (centres unmarked) [SC-268, 3-(difluoromethoxy)-2-(4-methyl-4-((3-(trifluoromethyl)phenyl)sulfonyl)tetrahydro-2H-pyran-2-yl)-5-(methylsulfonyl)pyridine]",75 to 95
